Experimental data from ChEMBL document CHEMBL1201862, “PubChem BioAssay data set” (2004).
The source made the active and inactive calls. For most assays here, no stated cut-off is given here; in the data, actives have a measured EC50 and inactives only a lower limit.

Legend:
[1] = viability of PTEN-deleted HCT116 cells – cell-based, HCT116 PTEN knockout, dose response (AID 1047); assay type: functional;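 further: HCT116 colon tumor cells with PTEN knocked out; cells exposed to compound for 60 hours before readout; potency for loss of cell viability measured by luminescence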
[2] = viability loss of HPDE-C7K cells – cell-based, fluorescence, HTS, primary screen (AID 431); assay type: functional; conditions: Homo sapiens
Protein RecA = target: T1, Protein RecA (Mycobacterium tuberculosis, UniProt P9WHJ3); assay: Fluorescence Cell-Free Homogeneous Dose Retest to Identify Inhibitors of RecA-Intein Splicing Activity. [Related pubchem assays (depositor defined):AID2097, AID2223, AID489010, AID492950]; assay type: functional
T1 sequence (P9WHJ3 whole entry): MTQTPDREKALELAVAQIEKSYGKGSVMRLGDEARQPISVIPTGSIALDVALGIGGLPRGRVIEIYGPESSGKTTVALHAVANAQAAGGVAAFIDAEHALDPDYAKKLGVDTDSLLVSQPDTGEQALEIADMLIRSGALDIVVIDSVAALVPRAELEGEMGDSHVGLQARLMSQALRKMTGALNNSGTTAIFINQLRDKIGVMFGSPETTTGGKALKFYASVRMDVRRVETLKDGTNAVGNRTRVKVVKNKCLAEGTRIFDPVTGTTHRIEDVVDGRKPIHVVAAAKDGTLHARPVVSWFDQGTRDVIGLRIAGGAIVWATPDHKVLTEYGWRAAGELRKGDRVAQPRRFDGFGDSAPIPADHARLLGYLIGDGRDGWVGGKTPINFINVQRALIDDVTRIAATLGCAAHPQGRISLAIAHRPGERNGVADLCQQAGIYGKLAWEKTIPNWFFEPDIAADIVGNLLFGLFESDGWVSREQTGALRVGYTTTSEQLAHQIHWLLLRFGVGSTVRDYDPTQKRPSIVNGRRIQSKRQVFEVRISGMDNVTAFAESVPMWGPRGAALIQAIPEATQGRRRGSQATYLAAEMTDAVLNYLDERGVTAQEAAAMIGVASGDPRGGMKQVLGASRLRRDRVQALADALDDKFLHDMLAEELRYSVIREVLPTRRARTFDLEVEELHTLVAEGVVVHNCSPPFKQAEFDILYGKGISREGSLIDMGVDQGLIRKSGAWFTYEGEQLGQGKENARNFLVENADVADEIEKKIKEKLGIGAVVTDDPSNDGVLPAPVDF

[3] = reduction of Shn3 3'UTR-driven luciferase in osteoblasts – cell-based, Clone20 osteoblasts, firefly luciferase, cherry-picked, dose response (AID 624132); assay type: functional;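 further: firefly luciferase luminescence from reporter carrying the Shn3 3'UTR in osteoblasts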
[4] = viability of HCT116 lacking mutant beta-catenin – cell-based, human colon tumor, dose response (AID 1045); assay type: functional;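 further: HCT116 colon tumor cells with beta catenin knocked out; cells exposed to compound for 60 hours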
cells [5] = assay type: functional, cell-based
[6] = target: T2, Replicative DNA helicase DnaB (Mycobacterium tuberculosis, UniProt P9WMR3); assay: DnaB intein splicing inhibitors, dose response, biochemical, cell-free fluorescence (AID 449749); assay type: functional
T2 sequence (P9WMR3 whole entry): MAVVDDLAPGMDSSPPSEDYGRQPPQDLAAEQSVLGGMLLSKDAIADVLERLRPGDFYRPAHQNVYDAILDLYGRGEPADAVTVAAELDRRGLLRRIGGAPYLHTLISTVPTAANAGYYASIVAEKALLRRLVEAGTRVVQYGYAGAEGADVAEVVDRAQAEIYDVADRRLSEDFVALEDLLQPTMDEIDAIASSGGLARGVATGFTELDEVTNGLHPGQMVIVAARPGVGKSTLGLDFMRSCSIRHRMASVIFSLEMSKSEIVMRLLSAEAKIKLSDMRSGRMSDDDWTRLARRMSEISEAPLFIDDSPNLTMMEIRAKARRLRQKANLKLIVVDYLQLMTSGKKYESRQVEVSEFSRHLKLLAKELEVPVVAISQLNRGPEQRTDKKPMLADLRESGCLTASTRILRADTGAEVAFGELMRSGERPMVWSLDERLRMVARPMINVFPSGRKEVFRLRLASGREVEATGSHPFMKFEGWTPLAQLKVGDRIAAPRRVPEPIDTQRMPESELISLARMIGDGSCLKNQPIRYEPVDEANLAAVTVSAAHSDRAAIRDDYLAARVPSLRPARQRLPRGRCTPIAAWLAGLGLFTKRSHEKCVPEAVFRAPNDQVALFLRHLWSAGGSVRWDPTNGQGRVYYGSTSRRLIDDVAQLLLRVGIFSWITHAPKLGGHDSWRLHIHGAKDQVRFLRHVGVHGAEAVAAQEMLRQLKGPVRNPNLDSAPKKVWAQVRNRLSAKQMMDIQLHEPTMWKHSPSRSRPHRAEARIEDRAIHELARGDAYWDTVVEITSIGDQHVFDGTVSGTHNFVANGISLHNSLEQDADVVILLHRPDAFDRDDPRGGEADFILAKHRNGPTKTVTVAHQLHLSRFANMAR

[7] = HPDE-C7 pancreatic duct cell viability loss – fluorescence, HTS (AID 430); assay type: functional, cell-based; conditions: Homo sapiens
cells [8] = assay type: functional, cell-based; remark: listed apart in the source
[9] = loss of viability in HepG2 cells – cell-based, CellTiter-Glo, cherry-picked, cytotoxicity control for Shn3 inhibitor project, dose response (AID 624134); assay type: functional
[10] = target: T3, Luciferin 4-monooxygenase (Photinus pyralis, UniProt P08659); assay: Counter Screen for Luciferase-based Assay Positives. [Related pubchem assays: 620, 618, 411 ]
T3 sequence (P08659 whole entry): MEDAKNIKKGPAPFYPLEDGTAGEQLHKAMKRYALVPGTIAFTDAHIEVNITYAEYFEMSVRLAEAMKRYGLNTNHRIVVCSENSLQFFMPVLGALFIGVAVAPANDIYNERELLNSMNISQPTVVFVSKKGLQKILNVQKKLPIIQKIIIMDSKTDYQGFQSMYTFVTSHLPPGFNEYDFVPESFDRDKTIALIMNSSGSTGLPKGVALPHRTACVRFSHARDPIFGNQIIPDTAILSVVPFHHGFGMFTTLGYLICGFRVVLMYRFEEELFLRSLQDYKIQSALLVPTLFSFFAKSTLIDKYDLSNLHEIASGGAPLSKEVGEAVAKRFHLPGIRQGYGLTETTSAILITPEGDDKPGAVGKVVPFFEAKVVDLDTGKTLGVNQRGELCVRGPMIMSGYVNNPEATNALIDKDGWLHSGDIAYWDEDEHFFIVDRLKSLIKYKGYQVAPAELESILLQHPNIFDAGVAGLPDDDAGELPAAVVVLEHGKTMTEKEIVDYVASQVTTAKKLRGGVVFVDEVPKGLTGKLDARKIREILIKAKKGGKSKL

[11] = non-specific 3'UTR reporter inhibition in Clone20-Shn3RL – cell-based, Renilla luciferase, cherry-picked, counter-screen for Shn3 inhibitor project, dose response (AID 624133); assay type: functional
HT-1080 = assay: HT1080 cell viability loss – fluorescence readout (AID 620); assay type: functional, cell-based; conditions: Homo sapiens
[12] = target: T3, Luciferin 4-monooxygenase; assay: inhibition of purified Photinus pyralis luciferase – biochemical, luminescence, dose response (AID 1891)
[13] = Luminescence Cell-Based Dose Confirmation HTS to Identify Inhibitors of Platelet Dense Granule Release. [Related pubchem assays: 1663 (Primary HTS), 1678 (Summary of Project)]; assay type: functional

| Compound | EC50 [1] | EC50 [2] | EC50 (Protein RecA) | AC50 [3] | EC50 [4] | EC50 (cells [5]) | AC50 [6] | EC50 [7] | EC50 (cells [8]) | AC50 [9] | EC50 [10] | AC50 [11] | EC50 (HT-1080) | EC50 [12] | EC50 [13] |
| --- | --- | --- | --- | --- | --- | --- | --- | --- | --- | --- | --- | --- | --- | --- | --- |
| COc1ccccc1-c1cc(C(F)(F)F)nc(S(=O)(=O)CCCC(=O)N2CCOCC2)n1 | 19.2 µM (active) | 6.34 µM (active) | 4.26 µM (active) | 3.02 µM (active) | 34.4 µM (active) | > 350 µM (not active) | 8.15 µM (active) | 9.95 µM (active) | > 350 µM (not active) | 23.2 µM (active) | 4.85 µM (active) | 10.2 µM (active) | 30.8 µM (active) |  |  |
| COC(=O)c1nn(-c2ccc(-c3ccccc3)cc2)cc1O |  |  |  |  |  |  |  |  |  |  | > 100 µM (not active) |  | > 50 µM (not active) | 1.93 µM (active) | 3.79 µM (active) |
